Laboratory results: patent publication US9096544B2, “Therapeutic compounds” (Wayne State University, priority 2009, dated 2015)
In brackets after ≈: the same amount, converted by molar mass. Read-outs that look alike come from different tables or passages of the source.

How the values were obtained:
[1] = tested on: AML KG-1 human myeloid cell line; assay: Test A: apoptosis induction in AML KG-1 cell line; type: cell-based
Excerpt: Inhibition of Cell Growth and Induction of Apoptosis in AML KG-1 Human Myeloid Cell Line.
Methods for measuring the inhibition of cell growth and induction of apotosis followed literature procedures (Dawson, M. I., et al., J. Med. Chem., 2007, 50, 2622-2639).

[2] = tested on: TF(v-SRC) cells; assay: Test B: apoptosis of TF(v-SRC) cells (acridine orange/ethidium bromide, nuclear fragmentation); type: cell-based; details: FIG. 2C
Method: FIG. 2 illustrates apoptosis induction in FFMA-AML and TF(v-SRC) cells by 3-Cl-AHPC and compound 16. Cells were seeded at 1×10^4 cells/ml, grown for 24 h and then exposed to 1 μM compound 16 or 3-Cl-AHPC A) at various concentrations of the compound for 96 h and B) for increasing times of exposure. C) Induction of apoptosis by 3-Cl-AHPC, all-trans-retinoic acid, 9-cis-retinoic acid and TTNPB in FFMA-AML and TF(v-SRC) cells. The percentage of apoptotic cells was determined using acridine orange and ethidium bromide staining to determine nuclear fragmentation as described in the general biochemical and pharmacological materials and methods. The error bars represent the mean of three separate determinations +/− the standard deviation (SD).
FFMA-AML cells were obtained from a patient with a diagnosis of AML as indicated by the immunophenotyping described in Table 1. This patient was refractory to the chemotherapy regimens consisting of cytosine arabinoside given with daunomycin as well as high-dose cytosine arabinoside. Peripheral blood samples were obtained from the patient utilizing a Wayne State University Institutional Review Board approved protocol and the leukemic blasts were isolated utilizing Ficoll hypaque. The isolated leukemic cells (representing >99% of the cells) were subsequently cultured in RPMI 1640 supplemented with 10% heat-inactivated fetal bovine serum (FBS) and growth factors interleukin 3 (IL-3), granulocyte-colony stimulating factor (G-CSF), granulocyte/macrophage colony-stimulating factor (GM-CSF), and stem cell factor (SCF) as we have previously reported, and then the cells were maintained in 10% FBS and gentamycin (Zhang Y. et al., Blood, 2003; […]:3743-3752). The TF(v-SRC) leukemia cells have been previously described (Black J. H. et al., Leukemia. 2003; 17:155-159). TF(v-SRC) cells were grown in RPMI 1640 supplemented with 10% heat inactivated FBS.
Apoptosis of cells was determined by (1) acridine orange and ethidium bromide-staining to assess cells with nuclear fragmentation and chromatin condensation as previously described (Farhana L. et al., Cancer Res. 2006; 65:4909-4917) and (2) flow cytometry assessing Annexin V-FITC binding together with propidium iodide staining (Annexin V-FITC apoptosis Detection kit 1, BD Biosciences, San Diego, Calif.). Data acquisition was done on a FACS Calibur flow cytometer (BD) and analyzed with CellQuest software.
Cells were grown in the presence and absence of increasing concentrations of either 3-Cl-AHPC or compound 16 and for varying periods of time. There was a progressive increase in 3-Cl-AHPC- and compound 16-mediated apoptosis in both FFMA-AML and TF(v-SRC) cells with time and with increasing concentrations of the compounds. […] We therefore tested the sensitivity of FFMA-AML and TF(v-SRC) cells to apoptosis induction by tRA, 9-cis RA, and TTNPB (FIG. 2C).

[3] = Test H: aqueous solubility by UV absorbance; type: physicochemical; details: thermodynamic from solid, 22° C.
Method: Standard curves at the UV λmax (330, 350 and 345 nm for 3-Cl-AHPC, 18 and 16, respectively) were generated using 0.245, 0.163, 0.049 and 0.025 mM 3-Cl-AHPC and 0.380, 0.178, 0.053 and 0.027 mM 18 and 16, which were prepared from 1.0% (wt/vol) solutions of compounds in Me2SO. […] Measurements for maximum solubilities in distilled water (pH 5) and phosphate-buffered saline (PBS, pH 7.2) at 22° C. were made by UV absorbance using solutions obtained after saturation at higher temperatures, overnight incubation at 22° C., and centrifugation to remove undissolved material.

[4] = tested on: acute promyelocytic leukemia (APL); details: pharmacologic concentrations; cited from earlier work

Row | SMILES | Apoptosis Induction (% control) 1.0 μM ([1]; treatment time 48 h) [% control] | Apoptosis Induction (% control) 5.0 μM ([1]; treatment time 48 h) [% control] | also measured
1 | O=C(O)/C=C/c1ccc(-c2ccc(O)c(C34CC5CC(CC(C5)C3)C4)c2)c(Cl)c1 | 30 | 55 | 
2 | O=C(O)/C=C/c1ccc(-c2ccc(O)c(C34CC5CC(CC(C5)C3)C4)c2)nc1 | 48 | 59 | 
3 | CC(=O)Oc1ccc(-c2ccc(/C=C/C(=O)O)cn2)cc1C12CC3CC(CC(C3)C1)C2 | 0 | 0 | 
4 | O=C(O)/C=C/c1ccc(-c2ccc(O)c(C34CC5CC(CC(C5)C3)C4)c2)nn1 | 52 | 67 | 
5 | O=C(O)/C=C/c1cnc(-c2ccc(O)c(C34CC5CC(CC(C5)C3)C4)c2)c(Cl)c1 | 55 | 65 | 
6 | O=C(O)/C=C/c1ccc(-c2ccc(O)c(C34CC5CC(CC(C5)C3)C4)c2)cn1 | 36 | 52 | 
7 | CC1=C(/C=C/C(C)=C\C=C\C(C)=C\C(=O)O)C(C)(C)CCC1 [Compound 9-cis-RA, 9-cis-retinoic acid] |  |  | induction of apoptosis [2]: no real increase in apoptosis
8 | O=C(O)CNc1cnc(-c2ccc(O)c(C34CC5CC(CC(C5)C3)C4)c2)nc1 [Compound 17, 2-[3-(1-Adamantyl)-4-hydroxyphenyl]-5-(carboxymethylamino)pyrimidine] |  |  | melting point: 235 °C (dec.)
9 | CCOC(=O)/C=C/c1ccc(-c2ccc(O)c(C34CC5CC(CC(C5)C3)C4)c2)nc1 [Compound 18, Ethyl(E)-3-{6-[3′-(1-adamantyl)-4′-hydroxyphenyl]-3-pyridinyl}-2-propenoate] |  |  | solubility ([3]; phosphate-buffered saline, aqueous buffer, PBS pH 7.2, read-out: Solubility (μM) at 22° C. PBS (pH 7.2)): 14 µM (≈ 5.65 µg/mL); solubility ([3]; distilled water pH 5, read-out: Solubility (μM) at 22° C. Distilled water (pH 5)): 7 µM (≈ 2.82 µg/mL); melting point: 215 to 217 °C
10 | O=C(O)/C=C/c1cnc(-c2ccc(O)c(C34CC5CC(CC(C5)C3)C4)c2)cn1 [Compound 23, (E)-3-{2-[3-(1-Adamantyl)-4-hydroxyphenyl]-5-pyrazinyl}-2-propenoic Acid] |  |  | melting point: 296 °C (dec.)
11 | C/C(=C\c1ccc(C(=O)O)cc1)c1ccc2c(c1)C(C)(C)CCC2(C)C [TTNPB] |  |  | induction of apoptosis [2]: no real increase in apoptosis
12 | O=C(O)/C=C/c1cnc(-c2ccc(O)c(C34CC5CC(CC(C5)C3)C4)c2)nc1 [drawing 23] | 40 | 50 | 
13 | O=C(O)CNc1cnc(-c2ccc(O)c(C34CC5CC(CC(C5)C3)C4)c2)nc1 [drawing 24] | 0 | 0 | 
14 | CCOC(=O)/C=C/c1ccc(-c2ccc(O)c(C34CC5CC(CC(C5)C3)C4)c2)nc1 [drawing 25] | 55 |  | Apoptosis Induction (% control) 1.0 μM ([1]; treatment time 24 h): 60 % control; Apoptosis Induction (% control) 5.0 μM ([1]; treatment time 24 h): 68 nd % control
15 | O=C(O)/C=C/c1cnc(-c2ccc(O)c(C34CC5CC(CC(C5)C3)C4)c2)cn1 [drawing 30] | 39 | 50 | 
16 | CC1=C(/C=C/C(C)=C/C=C/C(C)=C/C(=O)O)C(C)(C)CCC1 [tRA, all-trans-retinoic acid] |  |  | induction of apoptosis [2]: no real increase in apoptosis; patients achieving a complete remission [4]: 90%
